Assay [1] has as its system HFD-fed mice. Description: Insulin tolerance test (ITT) in HFD-fed mice. It counts as in vivo. Conditions: after 9 wks of HFD (FIG. 2A) and 20 wks of FAT diet (FIG. 2B), insulin 0.75 U/kg i.p., adjusted on percentage of fat mass gained. As to the method: (§1) C57BL/6 Ido-1−/− mice were from the Jackson Laboratory. Seven week-old Bl6 and Idoko male mice were subjected to HFD containing 60% fat during 20 weeks.
Insulin tolerance tests (ITT) was performed in mice food deprived 5 h prior intraperitoneal injection of insulin (0.75 U/kg). Blood was sampled from the tail vein at 0, 5, 15, 30, 60 and 120 min in order to assay glucose concentration (glucometer, France).
We next examined the effect of Ido deficiency or inhibition on glucose homeostasis in HFD-fed mice. To this end, we performed insulin tolerance tests (ITT) on Bl6, Idoko mice and Ido inhibitor (L-1 methyl tryptophan, L-1MT)-treated mice after 9 wks or 20 wks of HFD.

Assay [2] relates to HFD-fed mice. Description: Oral glucose tolerance test (OGTT) with HOMA-IR index in HFD-fed mice. Format: in vivo. Conditions: after 9 or 20 wks of HFD, normalized to fat mass (FIG. 3), versus Bl6 mice. How it is done: as §1
The oral glucose tolerance test was performed in mice food deprived for overnight prior to an oral administration of 3 g/kg glucose. Blood was sampled from the tail vein at 0, 5, 15, 30, 60 and 120 min in order to assay glucose concentration (glucometer, France). Plasma insulin concentration was measured using ELISA kit (Crystal Chem Inc., Downers Grove, Ill., USA). HOMA-IR in mice was calculated using the equation (fasting glucose concentration×fasting insulin concentration)/405).
Moreover, the insulin resistance index (HOMA-IR) was lower in Ido KO mice or L1MT-treated mice after 9 or 20 wks of HFD (FIG. 3).

`Cn1cc(C[C@H](N)C(=O)O)c2ccccc21` [L-1MT, L-1 methyl tryptophan]: the “insulin sensitivity in insulin tolerance test (ITT) versus Bl6 mice” value in assay [1] is recorded as “more insulin sensitive”. In assay [2], the “insulin resistance index (HOMA-IR)” value is “lower”.

(Values after US11752131B2, “Methods and pharmaceutical compositions for the treatment of obesity” (INSERM (Institut National de la Sante et de la Recherche …, priority 2016, dated 2023).)
